{
  "source": "patent US8524202B2",
  "about": "“Tooth whitening compositions and methods” (priority 2008, dated 2013)",
  "origin": "cited, not measured here",
  "settings": "at six months; concentrations 16%-18% carbamide peroxide; Brunton et al., 2004",
  "data": [
    {"smiles": "NC(N)=O.OO", "note": "[carbamide peroxide]", "values": [
      {"measurement": "rebound, patients", "value": 40, "unit": "%"}
    ]}
  ]
}
